Source: patent US8703066B2, “Sterilization system and method” (Noxilizer, Inc., priority 2004, dated 2014)

Tests used:
[1] = system: sporulated B. subtilis var. niger; experiment: Sterilization with varying quantities of delivered nitric oxide, contaminated stainless steel strips; format: cell-based; settings: 5%, 2.5% and 1% NO in air, five minutes, culture in LB 48 hours then plating
From the text: A blood storage container (Nexell, Irvine, Calif.; Lifecell PL732 plastic tissue culture flask) is used as the sterilization chamber. Strips of stainless steel are dipped in 10^6 CFU/ml sporulated B. subtilis var. niger (as determined by ABS595 standardization curves). The strips are allowed to air dry, placed in the sterilization chamber, and then the sterilization chamber is heat sealed. The sterilization chamber is evacuated using a syringe and controlling air flow with the sterilization chamber valves. A known quantity of air is added to the vessel using a graduated syringe.
An NO-generating donor compound is placed in a 7 cc gas generation chamber. The gas generation chamber is attached to the storage container through luer lock connectors. The liquid activator, 3.0N HCl is added to the gas generation chamber and the generated gas is allowed to flow into the sterilization chamber. After a brief generation period, the gas is sealed in the sterilization chamber using a compression valve.
Varying quantities of NO gas, namely 10%, 5%, 2.5% and 1% NO, are tested for their efficacy in the sterilization chamber. The quantity (%) of NO gas generated and added to the sterilization chamber is calculated from the number of moles of NO required to be generated to result in the desired percentage of NO. […]

[2] = system: Bacillus subtilis var niger 9372; experiment: Pressure vessel sterilization of contaminated stainless steel coupons with NO gas; format: cell-based; settings: five minute sterilization cycle; pure NO at atmospheric pressure; stainless steel coupons dipped in at least 10^8 CFU/ml
From the text: (§1) A glass pressure vessel is connected to a scrubbed NO gas tank source. The pressure vessel is purged five times with Argon gas to eliminate atmospheric oxygen (preventing formation of NO2.) and an additional three purges of NO are used to ensure a pure NO atmosphere and consistent results of bactericidal activity. To test the sterilization method: Bacillus subtilis var niger 9372 is used (after obtaining >80% endospore formation; a standard for ethylene oxide and autoclave test sterilization), as well as organisms commonly found on the epidermis: Staphylococcus aureus (str 21769) and Staphylococcus epidermides (str 21977), and the enteric organisms: Klebsiella pneumoniae (str 21991) and Serratia marcesens (str 21140). This particular Serratia strain has been found in previous studies to be one of the most resistant bacteria to the bactericidal effects of NO in culture (Raulli et al., 2002).
(§2) The organisms are cultured overnight in BHI. The cultures contained at least 10^8 CFU/ml based on standardized ABS595 curves for each organism. Stainless steel coupons, 3×1 cm, are dipped in the cultures, and either dried in ambient air first or placed in the pressure vessel still wet from the culture dip. The coupons are exposed to NO gas at atmospheric pressure for decreasing time periods starting with 45 min and working back to 5 min. Control samples are handled identically, except the pressure vessel was gassed with nitrogen.
(§3) The sealed vessel is carefully opened in a laminar flow hood after all the NO had been purged with Argon. The samples are removed aseptically with sterilized tongs and placed in culture tubes containing sterile BHI media. The samples are incubated in a vigorously shaking waterbath at 35° C. The samples are observed (digitally photographed) 24 hrs later, placed back in the waterbath and are measured for absorbance 72 hrs later. The controls had >10^8 CFU/ml after 24 hrs.

[3] = system: Klebsiella pneumoniae (str 21991); experiment: as above; format: cell-based; settings: five minute sterilization cycle; pure NO at atmospheric pressure; stainless steel coupons dipped in at least 10^8 CFU/ml
From the text: as §1, §2, §3

[4] = system: Serratia marcesens (str 21140); experiment: as above; format: cell-based; settings: five minute sterilization cycle; pure NO at atmospheric pressure; stainless steel coupons dipped in at least 10^8 CFU/ml
From the text: as §1, §2, §3

[5] = system: Staphylococcus aureus (str 21769); experiment: as above; format: cell-based; settings: five minute sterilization cycle; pure NO at atmospheric pressure; stainless steel coupons dipped in at least 10^8 CFU/ml
From the text: as §1, §2, §3

[6] = system: Staphylococcus epidermides (str 21977); experiment: as above; format: cell-based; settings: five minute sterilization cycle; pure NO at atmospheric pressure; stainless steel coupons dipped in at least 10^8 CFU/ml
From the text: as §1, §2, §3

[7] = system: Bacillus subtilis (spore); experiment: Portable system (blood storage container) sterilization of stainless steel coupons; format: cell-based; settings: fifteen minute sterilization cycle; NO from acidified diazeniumdiolate; 1 ATM; stainless steel coupon, at least 10^8 CFU/ml
From the text: (§4) Similar to Example 1, a portable system is devised using blood storage containers and other laboratory items. In this construct, a blood storage container (Nexell, Irvine, Calif.; Lifecell PL732 plastic tissue culture flask) serves as the sterilization chamber. It has multiple ports, is easily attached to tubing or other chambers, and is easily cut and heat sealed for insertion and removal of contaminated/sterilized samples. The heat seal is strong and holds well at pressure, even though 1 ATM of pressure is used experimentally. Two 60 ml syringes connected to each other and a line of tubing by a three-way stopcock are employed to mix acidic buffer in one syringe with NO-releasing diazeniumdiolate in the other syringe. The tubing is connected to the blood container/sterilization chamber.
(§5) The stopcock is turned so that the acidic buffer can be added to the syringe containing the diazeniumdiolate. The valve is immediately closed to the buffer syringe and opened to the sterilization chamber. The 300 cc sterilization chamber inflates in about 15 seconds. Experiments are performed as described above, except that the devised system is used instead of the pressure vessel.
(§6) The test organisms are cultured overnight in BHI. The cultures contained at least 10^8 CFU/ml (100-fold greater than FDA testing guidelines) based on standardized ABS595 curves for each organism. Stainless steel coupons, 3×1 cm, are dipped in the cultures, and either dried in ambient air first or placed in the pressure vessel still wet from the culture dip. The dried samples are dipped in sterile BHI media before being placed in the sterilization chamber.

[8] = system: Serratia marcesens; experiment: as above; format: cell-based; settings: fifteen minute sterilization cycle; NO from acidified diazeniumdiolate; 1 ATM; stainless steel coupon, at least 10^8 CFU/ml
From the text: as §4, §5, §6

[9] = system: Staphylococcus epidermides; experiment: as above; format: cell-based; settings: fifteen minute sterilization cycle; NO from acidified diazeniumdiolate; 1 ATM; stainless steel coupon, at least 10^8 CFU/ml
From the text: as §4, §5, §6

[10] = system: B. subtilis (vegetative); experiment: as above; format: cell-based, Bacillus subtilis; settings: fifteen minute sterilization cycle; NO from acidified diazeniumdiolate; 1 ATM; stainless steel coupon, at least 10^8 CFU/ml
From the text: as §4, §5
The test organisms are cultured overnight in BHI. The cultures contained at least 10^8 CFU/ml (100-fold greater than FDA testing guidelines) based on standardized ABS595 curves for each organism. […]

[11] = system: bacterial cocktail containing B. subtilis, S. marcesens, and S. epidermides; experiment: Sterilization of medical materials (tubing, needle); format: cell-based; settings: 15 min sterilization cycle, about 10^8 total CFU/ml
Method: An additional study is performed to test medically relevant materials such as needles and plastic tubing. Teflon (⅛′ ID), polyethylene (1.77 mm ID), vinyl (0.5 mm ID) tubing and a 30 ga. disposable needle are dipped in a bacterial cocktail containing B. subtilis, S. marcesens, and S. epidermides at about 10^8 total CFU/ml The samples are placed in the sterilization chamber and sealed. In each case, the lumen of the tubing or contained at least some visually confirmed inoculum. […] The controls for each material reached at least 10^6 total CFU/ml in 24 hrs as determined by ABS595 standardization curves.

[12] = system: cocktail of bacteria; experiment: Humidity effects: sterilization of sealed and unsealed dry stainless steel coupons; format: cell-based; settings: 15 min sterilization cycle at 1 ATM, 2/2 trials
Method: Several humidifying paradigms and the ability to sterilize through a gas sterilization seal pouch is tested. A cocktail of bacteria is used, all grown to about 10^8 CFU/ml and mixed in equal volume. Stainless steel coupons are dipped, allowed to dry, and subject to one of three methods. Method A samples are wrapped in a moist Kimwipe, Method B samples are left dry, and Method C samples are sealed, dry, in a V. Mueller™ Dual Peel Seal Pouch, designed for gas and autoclave sterilizations. Samples from methods B and C are placed in the sterilization chamber with a moist Kimwipe, which is placed in the chamber so as to insure maximal separation of the Kimwipe and the sample to be sterilized. The chamber is re-sealed carefully so as not to disturb the positioning of the samples relative to the Kimwipe. The samples are subject to a 15 min sterilization cycle at 1 ATM, removed under sterile conditions, and the samples are placed in BHI media as described above. Control samples are handled identically except for the chamber being gassed with […]. All controls reached greater than […] total CFU/ml in 24 hrs as determined by ABS595 standardization curves.

[N]=O [NO, nitric oxide]
killing of 10^6 CFU/ml sporulated B. subtilis var. niger [1]: effective at killing
Killed (trials with no bacterial growth / trials) [2]: 3/3 Killed
Killed (trials with no bacterial growth / trials) [3]: 3/3 Killed
Killed (trials with no bacterial growth / trials) [4]: 3/3 Killed
Killed (trials with no bacterial growth / trials) [5]: 3/3 Killed
Killed (trials with no bacterial growth / trials) [6]: 3/3 Killed
Killed (trials) [7]: 2/2 Killed
Killed (trials) [8]: 3/3 Killed
Killed (trials) [9]: 3/3 Killed
Killed (trials) [10]: 2/2 Killed
Killed (trials) ([11]; Disposable Needle 30 ga.): 2/2 Killed
Killed (trials) ([11]; Polyethylene Tubing 1.77 mm ID): 2/2 Killed
Killed (trials) ([11]; Teflon Tubing 1/8' ID): 2/2 Killed
Killed (trials) ([11]; Vinyl Tubing 0.5 mm ID): 2/2 Killed
Killed (trials) ([12]; Method A Moist Kimwipe Wrap): Killed
Killed (trials) ([12]; Method B Dry sample, moist Kimwipe apart in chamber): Killed
Killed (trials) ([12]; Method C Dry, Sealed Sample in Dual Peel Seal Pouch, moist Kimwipe apart in chamber): Killed
